Data on seven compounds can be found in patent publication US20110086759A1, “CHEMICAL COMPOUNDS” (SYNGENTA CROP PROTECTION, INC., priority 2007, published 2011).

Each structure is given as a SMILES string.

Holding throughout (type): in vivo
Assay [1] has as its system Echinochloa crus-galli (ECHCG). In words: Pre-emergence biological efficacy, glasshouse pot test. The note with it: 312 h. In short, it runs like this: (§1)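 Test compound, formulated in acetone/water (50:50) containing 0.5% Tween 20 and diluted into an aqueous spray, was applied at 1000 or 250 g/ha to pots sown one day earlier. Injury was rated after 13 days, 100 meaning total damage.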

For assay [2], the system named is Setaria faberi (SETFA). Described as above. The note with it: 312 h. The procedure, abridged: as §1
For assay [3], the system named is Solanum nigrum (SOLNI). The description is as above. The note with it: 312 h. In short, it runs like this: as §1
For assay [4], the system named is Amaranthus retoflexus (AMARE). The description is as above. Particulars: Amaranthus retroflexus, 312 h. The procedure, abridged:
as §1

The subject of assay [5] is Alopecurus myosuroides (ALOMY). The assay is described as above. Particulars: 312 h. In short, it runs like this: as §1
Assay [6] deals with Ipomea hederaceae (IPOHE). The description is as above. The note with it: Ipomoea hederacea, 312 h. In short, it runs like this:
as §1

Assay [7] relates to Echinochloa crus-galli (ECHCG). In words: Post-emergence biological efficacy, glasshouse pot test. The note with it: 312 h. In short, it runs like this:
(§2)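 Plants were sown in standard soil and grown 8 days in a glasshouse (24/16° C. day/night, 14 hours light, 65% humidity), then sprayed post-emergence at 1000 or 250 g/ha from acetone/water (50:50) with 0.5% Tween 20. Damage was scored visually after 13 days (0 = none, 100 = total).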

The test system of assay [8] is Setaria faberi (SETFA). The description is as above. The note with it: 312 h. The procedure, abridged: as §2
In assay [9] the test system is Solanum nigrum (SOLNI). The description is as above. Particulars: 312 h. In short, it runs like this:
as §2

Assay [10] deals with Amaranthus retoflexus (AMARE). The assay is described as above. The note with it: Amaranthus retroflexus, 312 h. The procedure, abridged: as §2
Assay [11] concerns Alopecurus myosuroides (ALOMY). The assay is described as above. Particulars: 312 h. In short, it runs like this: as §2
Assay [12] concerns Ipomea hederaceae (IPOHE). The description is as above. Particulars: Ipomoea hederacea, 312 h. The procedure, abridged: as §2
[13] abbreviates: pre-emergence, rate 1,000 g/ha, evaluated after 13 days (100=total damage to plant; 0=no damage), read-out: Percentage damage caused to weed species, ECHCG.
The mark [14] stands for this setting: pre-emergence, rate 1,000 g/ha, evaluated after 13 days (100=total damage to plant; 0=no damage), read-out: Percentage damage caused to weed species, SETFA.
The mark [15] stands for this setting: pre-emergence, rate 1,000 g/ha, evaluated after 13 days (100=total damage to plant; 0=no damage), read-out: Percentage damage caused to weed species, SOLNI.
Setting [16] is: pre-emergence, rate 1,000 g/ha, evaluated after 13 days (100=total damage to plant; 0=no damage), read-out: Percentage damage caused to weed species, AMARE.
The mark [17] stands for this setting: pre-emergence, rate 1,000 g/ha, evaluated after 13 days (100=total damage to plant; 0=no damage), read-out: Percentage damage caused to weed species, ALOMY.
[18] abbreviates: pre-emergence, rate 1,000 g/ha, evaluated after 13 days (100=total damage to plant; 0=no damage), read-out: Percentage damage caused to weed species, IPOHE.
[19] abbreviates: Rate 1,000 g/ha, post-emergence spray, evaluated after 13 days (100=total damage to plant; 0=no damage to plant), read-out: Percentage damage caused to weed species, post-emergence, ECHCG.
[20] abbreviates: Rate 1,000 g/ha, post-emergence spray, evaluated after 13 days (100=total damage to plant; 0=no damage to plant), read-out: Percentage damage caused to weed species, post-emergence, SETFA.
The mark [21] stands for this setting: Rate 1,000 g/ha, post-emergence spray, evaluated after 13 days (100=total damage to plant; 0=no damage to plant), read-out: Percentage damage caused to weed species, post-emergence, SOLNI.
Where [22] appears, read: Rate 1,000 g/ha, post-emergence spray, evaluated after 13 days (100=total damage to plant; 0=no damage to plant), read-out: Percentage damage caused to weed species, post-emergence, AMARE.
The mark [23] stands for this setting: Rate 1,000 g/ha, post-emergence spray, evaluated after 13 days (100=total damage to plant; 0=no damage to plant), read-out: Percentage damage caused to weed species, post-emergence, ALOMY.
Setting [24] is: Rate 1,000 g/ha, post-emergence spray, evaluated after 13 days (100=total damage to plant; 0=no damage to plant), read-out: Percentage damage caused to weed species, post-emergence, IPOHE.
Setting [25] is: pre-emergence, 1,000 g/ha, evaluated after 13 days (100=total damage; 0=no damage), read-out: Percentage damage ECHCG.
The mark [26] stands for this setting: pre-emergence, 1,000 g/ha, evaluated after 13 days (100=total damage; 0=no damage), read-out: Percentage damage SETFA.
Where [27] appears, read: pre-emergence, 1,000 g/ha, evaluated after 13 days (100=total damage; 0=no damage), read-out: Percentage damage SOLNI.
The mark [28] stands for this setting: pre-emergence, 1,000 g/ha, evaluated after 13 days (100=total damage; 0=no damage), read-out: Percentage damage AMARE.
Where [29] appears, read: pre-emergence, 1,000 g/ha, evaluated after 13 days (100=total damage; 0=no damage), read-out: Percentage damage ALOMY.
Where [30] appears, read: pre-emergence, 1,000 g/ha, evaluated after 13 days (100=total damage; 0=no damage), read-out: Percentage damage IPOHE.
Where [31] appears, read: post-emergence, 1,000 g/ha, evaluated after 13 days (100=total damage; 0=no damage), read-out: Percentage damage caused to weed species, ECHCG.
[32] abbreviates: post-emergence, 1,000 g/ha, evaluated after 13 days (100=total damage; 0=no damage), read-out: Percentage damage caused to weed species, SETFA.
Setting [33] is: post-emergence, 1,000 g/ha, evaluated after 13 days (100=total damage; 0=no damage), read-out: Percentage damage caused to weed species, SOLNI.
The mark [34] stands for this setting: post-emergence, 1,000 g/ha, evaluated after 13 days (100=total damage; 0=no damage), read-out: Percentage damage caused to weed species, AMARE.
Setting [35] is: post-emergence, 1,000 g/ha, evaluated after 13 days (100=total damage; 0=no damage), read-out: Percentage damage caused to weed species, ALOMY.
Where [36] appears, read: post-emergence, 1,000 g/ha, evaluated after 13 days (100=total damage; 0=no damage), read-out: Percentage damage caused to weed species, IPOHE.

As to `C=Cc1c(NCc2ccco2)nc(-c2ccc(Cl)c(OC)c2F)nc1C(=O)OC` [Compound 139-125, 2-(4-Chloro-2-fluoro-3-methoxyphenyl)-5-ethenyl-4-(furan-2-ylmethylamino)-6-methoxycarbonyl-pyrimidine], the pest or weed control at 1000 g/ha in assay [1] (setting [13]) worked out at 80%; with Setaria faberi (SETFA) [2] (setting [14]), 80%; in the assay with Solanum nigrum (SOLNI) [3] (setting [15]) it was 100%; in assay [4] (setting [16]) it was 100%; in [5] (setting [17]), 70%; in assay [6] (setting [18]) it was 90%. The pest or weed control at 1000 g/ha in assay [7] (setting [19]) was 80%; in the assay with Setaria faberi (SETFA) [8] (setting [20]), 90%; in the assay with Solanum nigrum (SOLNI) [9] (setting [21]) it was 90%; in assay [10] (setting [22]), 100%; in [11] (setting [23]) it was 80%; in [12] (setting [24]), 80%.

In the case of `COC(=O)c1nc(-c2ccc(C)c([N+](=O)[O-])c2)nc(NCc2ccco2)c1Cl` [Compound 256-48, 5-Chloro-4-(furan-2-ylmethylamino)-6-methoxycarbonyl-2-(4-methyl-3-nitrophenyl)-pyrimidine], the pest or weed control at 1000 g/ha is 0% in assay [1] (setting [13]); 0% with Setaria faberi (SETFA) [2] (setting [14]); 0% with Solanum nigrum (SOLNI) [3] (setting [15]); 80% in assay [4] (setting [16]); 0% in [5] (setting [17]); 0% in [6] (setting [18]). For the same compound, the pest or weed control at 1000 g/ha in assay [7] (setting [19]) was determined as 0%; in the assay on Setaria faberi (SETFA) [8] (setting [20]) it was 10%; with Solanum nigrum (SOLNI) [9] (setting [21]), 50%; in assay [10] (setting [22]) it was 30%; in assay [11] (setting [23]), 0%; in assay [12] (setting [24]), 20%.

Turning to `COC(=O)c1nc(C2CC2)nc(N[C@@H](C)[C@H](O)c2ccccc2)c1Cl` [4-270 (1S,2R), 5-Chloro-2-cyclopropyl-4-[(1S, 2R)-2-hydroxy-1-methyl-2-phenyl-ethylamino]-6-methoxycarbonyl-pyrimidine], the pest or weed control at 1000 g/ha in assay [1] (setting [25]) is 20%; with Setaria faberi (SETFA) [2] (setting [26]), 30%; with Solanum nigrum (SOLNI) [3] (setting [27]) it was 80%; in [4] (setting [28]) it was 70%; in [5] (setting [29]) it was 20%; in assay [6] (setting [30]) it was 100%. The pest or weed control at 1000 g/ha in assay [7] (setting [31]) was 30%; in the assay with Setaria faberi (SETFA) [8] (setting [32]), 80%; with Solanum nigrum (SOLNI) [9] (setting [33]), 100%; in [10] (setting [34]), 100%; in assay [11] (setting [35]), 40%; in assay [12] (setting [36]), 100%.

As to `COC(=O)c1nc(C2CC2)nc(NC(Cc2ccccc2)c2ccccc2)c1Cl` (stereo not drawn) [Compound 4-279, 5-Chloro-2-cyclopropyl-4-(1,2-diphenylethyl-amino)-6-methoxy-carbonylpyrimidine], the pest or weed control at 1000 g/ha turned out to be 0% in assay [1] (setting [25]); 0% with Setaria faberi (SETFA) [2] (setting [26]); 70% with Solanum nigrum (SOLNI) [3] (setting [27]); 20% in [4] (setting [28]); 10% in [5] (setting [29]); 60% in assay [6] (setting [30]). Also, the pest or weed control at 1000 g/ha in [7] (setting [31]) is 0%; in the assay with Setaria faberi (SETFA) [8] (setting [32]) it was 40%; in the assay with Solanum nigrum (SOLNI) [9] (setting [33]), 70%; in assay [10] (setting [34]) it was 90%; in assay [11] (setting [35]) it was 10%; in [12] (setting [36]), 60%.

Take `COC(=O)c1nc(C2CC2)nc(N(C)Cc2cccc([N+](=O)[O-])c2)c1Cl` [Compound 5-91, 5-Chloro-2-cyclopropyl-6-methoxycarbonyl-4-[N-methyl-N-(3-nitrophenylmethyl)-amino]pyrimidine]: the pest or weed control at 1000 g/ha was 0% in assay [1] (setting [13]); 10% in the assay with Setaria faberi (SETFA) [2] (setting [14]); 60% in the assay with Solanum nigrum (SOLNI) [3] (setting [15]); 70% in assay [4] (setting [16]); 10% in [5] (setting [17]); 30% in [6] (setting [18]). In addition, the pest or weed control at 1000 g/ha in assay [7] (setting [19]) came to 30%; in the assay with Setaria faberi (SETFA) [8] (setting [20]) it was 40%; in the assay with Solanum nigrum (SOLNI) [9] (setting [21]), 80%; in assay [10] (setting [22]) it was 100%; in assay [11] (setting [23]), 20%; in [12] (setting [24]), 80%.

Regarding `COC(=O)c1nc(C2CC2)nc(N[C@H](CO)[C@H](O)c2ccc([N+](=O)[O-])cc2)c1Cl` [4-275 (R,R), 5-Chloro-2-cyclopropyl-4-[(1R, 2R)-2-hydroxy-1-hydroxymethyl-2-(4-nitrophenyl)-ethylamino]-6-methoxycarbonyl-pyrimidine], the pest or weed control at 1000 g/ha in assay [1] (setting [25]) is 60%; in the assay on Setaria faberi (SETFA) [2] (setting [26]) it was 70%; in the assay on Solanum nigrum (SOLNI) [3] (setting [27]), 90%; in assay [4] (setting [28]), 100%; in assay [5] (setting [29]), 70%; in [6] (setting [30]), 100%. In addition, the pest or weed control at 1000 g/ha in [7] (setting [31]) was found to be 70%; in the assay on Setaria faberi (SETFA) [8] (setting [32]) it was 80%; with Solanum nigrum (SOLNI) [9] (setting [33]) it was 100%; in assay [10] (setting [34]) it was 100%; in [11] (setting [35]), 30%; in assay [12] (setting [36]), 100%.

`COC(=O)c1nc(C2CC2)nc(N(C)Cc2ccc(Cl)cc2)c1Cl` [Compound 5-63, 5-Chloro-4-[N-(4-chlorophenyl-methyl)-N-methyl-amino]-2-cyclo-propyl-6-methoxy-carbonylpyrimidine]: the pest or weed control at 1000 g/ha in [1] (setting [13]) turned out to be 0%; in the assay on Setaria faberi (SETFA) [2] (setting [14]), 20%; in the assay on Solanum nigrum (SOLNI) [3] (setting [15]) it was 30%; in [4] (setting [16]), 100%; in assay [5] (setting [17]), 10%; in [6] (setting [18]), 70%. Besides, the pest or weed control at 1000 g/ha in [7] (setting [19]) came to 40%; in the assay on Setaria faberi (SETFA) [8] (setting [20]), 70%; in the assay with Solanum nigrum (SOLNI) [9] (setting [21]), 80%; in assay [10] (setting [22]), 100%; in [11] (setting [23]) it was 30%; in assay [12] (setting [24]), 90%.
